# Measured values from patent US20130123107A1, “Use of Adjuvants to Improve Abscisic Acid Performance” (Valent BioSciences Corporation, priority 2007, published 2013).
# Structures can show the parent of a compound that is named as a salt.
# What was measured:
# [1] = tested on: tomato leaf transpiration; assay: tomato leaf transpiration inhibition bioassay; type: in vivo, Tomato (variety: Rutgers)
# Text: The compositions of the present invention improve ABA effectiveness by incorporating a surfactant, and optionally a nitrogen-containing fertilizer together with an effective amount of the plant growth regulator abscisic acid (S-ABA; ABA; S-(+)-abscisic acid; +-ABA, (+)-(S)-cis, trans-abscisic acid, (+)-(S)-cis,trans-ABA; S-ABA; (S)-5-(1-hydroxy-2,6,6,-trimethyl-4-oxo-2-cyclohexen-1-yl)-3-methyl-(2Z,4E)-pentadienoic acid; CAS registry no, [21293-29-8]). ABA effectiveness may be measured experimentally by quantifying the inhibition of transpiration in tomato leaves. This is a reliable laboratory bioassay of the level of ABA activity.
# Preparation of plant specimens for use in the treatment studies of the examples described was carried out as follows. Tomato (variety: Rutgers) seeds were sown in an 18-cell flat filled with Promix PGX (available from Premier Horticulture Inc. Quakertown, Pa.) and grown for 3 weeks to allow for germination and initial growth. Plants were then transplanted into pots (18 cm in diameter and 18 cm in height), filled with Promix BX (available from Premier Horticulture Inc. Quakertown, Pa.), and grown for one or two more weeks before treatment, depending on temperature and available light. Plants received daily irrigation and weekly fertilizer (1 g/L all purpose fertilizer 20-20-20, available from The Scotts Company, Marysville, Ohio).
# All treatment solutions were prepared with distilled water, ABA (95% active ingredient) is available from Lomon BioTechnology Co., Ltd. (Shichuan, China). […]
# Unless otherwise specified, when a surfactant was employed, it was incorporated into the 250-ppm ABA treatment solution at a concentration of 0.05% to 0.5% (v/v).
# ABA solutions and blank treatments were applied to the aerial parts of tomato plant leaves at the rate of 20 mL per 6 plants. Plants were then placed in a transparent chamber with humidity controlled within the range of 40 to 60% relative humidity. Leaf transpiration rates were measured at 1, 2 and 3 days; at 1, 2, 3 and 4 days; or at 1, 2, 3, 4 and 7 days after treatment. Measurements were conducted using a LI-1600 Steady State Porameter (LI-Cor, Lincoln, Nebr.). Each day the transpiration rate of the plants of each treatment group was normalized to the percentage of the transpiration rate of untreated plants (plants sprayed with water only) in order to control for day-to-day variability caused by changes of environmental conditions such as light intensity and temperature. In some cases, data of each plant was averaged over a 3-day period to balance the short term and long-term effect of ABA on tomato leaf transpiration as well as to control for experimental variability.
# (§1) All experiments were conducted using a randomized complete block experimental design. Data were analyzed by analysis of variance. Duncan's new multiple range tests at α-005 were used for mean separations.
# Crimson seedless grapes [2] = assay: grape coloring field study, ABA with or without Brij 98; type: in vivo; details: for Harvest yield (%): harvest at 64 days after treatment, yield percent with sufficient color
# Protocol: A grape coloring field study was conducted at Caruthers, Calif. ABA alone at 100 or 200 ppm or its combination with 0.05% Brij 98 was foliar applied to Crimson seedless grapes. Number of clusters with color was counted on a weekly basis, beginning at 21 days after treatment. Percentage of clusters with color was calculated. Grape yield was harvested at 64 days after treatment.
# as §1
# The effect of 0.05% Brij 98 on ABA (100 or 200 ppm) performance in grape coloration was examined in the field (Table 12). Addition of Brij 98 increased the percent of clusters with color for ABA at 100 or 200 ppm after application and increased the harvest yield percent with sufficient color. Treatment with 200 ppm ABA had more colored clusters and yield.
# Crimson seedless grapes [3] = assay: grape coloring field study, ABA with or without Latron B-1956; type: in vivo; details: for Harvest yield (%): harvest at 64 days after treatment, yield percent with sufficient color
# Protocol: A grape coloring field study was conducted at Caruthers, Calif., ABA alone at 100 or 200 ppm or its combination with 0.05% Latron B-1956 was foliar applied to Crimson seedless grapes. Number of clusters, with color was counted on a weekly basis, beginning at 21 days after treatment. Percentage of clusters with color was calculated. Grape yield was harvested at 64 days after treatment.
# as §1
# The effect of 0.05% Latron B-1956 on ABA (100 or 200 ppm) performance in grape coloration was examined (Table 15). Addition of Latron B-1956 increased the percent clusters with color for ABA at 100 or 200 ppm after application and increased the harvest yield percent with sufficient color. ABA at 200 ppm with or without Latron 13-1956 had more color and greater yield than at 100 ppm.
# [4] = 250 ppm ABA or ABA ammonium salt, 1 day after treatment (Table 7)
# [5] = 250 ppm ABA or ABA ammonium salt, 2 days after treatment (Table 7)
# [6] = 250 ppm ABA or ABA ammonium salt, 3 days after treatment (Table 7)
# [7] = 250 ppm ABA or ABA ammonium salt, average of days 1-3 after treatment (Table 7)
# [8] = 250 ppm ABA or salt at rates equivalent to 250 ppm ABA, 1 day after treatment (Table 10)
# [9] = 250 ppm ABA or salt at rates equivalent to 250 ppm ABA, 2 days after treatment (Table 10)
# [10] = 250 ppm ABA or salt at rates equivalent to 250 ppm ABA, 3 days after treatment (Table 10)
# [11] = 250 ppm ABA or salt at rates equivalent to 250 ppm ABA, average of days 1-3 (Table 10)
# [12] = 100 ppm ABA foliar applied, 21 days after application
# [13] = 100 ppm ABA foliar applied, 27 days after application
# [14] = 100 ppm ABA foliar applied, 35 days after application
# [15] = 100 ppm ABA foliar applied, 43 days after application
# [16] = 100 ppm ABA foliar applied, 50 days after application
# [17] = 100 ppm ABA foliar applied, 56 days after application
# [18] = 100 ppm ABA foliar applied, 62 days after application
# [19] = 100 ppm ABA foliar applied, 64 days after application
# [20] = 200 ppm ABA foliar applied, 21 days after application
# [21] = 200 ppm ABA foliar applied, 27 days after application
# [22] = 200 ppm ABA foliar applied, 35 days after application
# [23] = 200 ppm ABA foliar applied, 43 days after application
# [24] = 200 ppm ABA foliar applied, 50 days after application
# [25] = 200 ppm ABA foliar applied, 56 days after application
# [26] = 200 ppm ABA foliar applied, 62 days after application
# [27] = 200 ppm ABA foliar applied, 64 days after application
compound,measurement,setting,value
"(S)-5-(1-hydroxy-2,6,6,-trimethyl-4-oxo-2-cyclohexen-1-yl)-3-methyl-(2Z,4E)-pentadienoic acid [ABA]",Transpiration rate (% of control),"[1]; 125 ppm ABA, average of first 3 days after treatment",96 % of control
same,Transpiration rate (% of control),[1]; [4],73 % of control
same,Transpiration rate (% of control),[1]; [5],76 % of control
same,Transpiration rate (% of control),[1]; [6],94 % of control
same,"Transpiration rate (% of control), Average",[1]; [7],81 % of control
same,Transpiration rate (% of control),"[1]; 250 ppm ABA or salt at rate equivalent to 250 ppm ABA, 1 day after treatment (Table 8)",71 % of control
same,Transpiration rate (% of control),"[1]; 250 ppm ABA or salt at rate equivalent to 250 ppm ABA, 2 days after treatment (Table 8)",75 % of control
same,Transpiration rate (% of control),"[1]; 250 ppm ABA or salt at rate equivalent to 250 ppm ABA, 3 days after treatment (Table 8)",88 % of control
same,"Transpiration rate (% of control), Average","[1]; 250 ppm ABA or salt at rate equivalent to 250 ppm ABA, average of days 1-3 (Table 8)",78 % of control
same,Transpiration rate (% of control),[1]; [8],59 % of control
same,Transpiration rate (% of control),[1]; [9],71 % of control
same,Transpiration rate (% of control),[1]; [10],77 % of control
same,"Transpiration rate (% of control), Average",[1]; [11],69 % of control
same,Transpiration rate (% of control),"[1]; 250 ppm ABA, 1 day after treatment (Table 2)",76 % of control
same,Transpiration rate (% of control),"[1]; 250 ppm ABA, 1 day after treatment (Table 5)",82 % of control
same,Transpiration rate (% of control),"[1]; 250 ppm ABA, 1 day after treatment (Table 6)",71 % of control
same,Transpiration rate (% of control),"[1]; 250 ppm ABA, 1 day after treatment (Table 11)",83 % of control
same,Transpiration rate (% of control),"[1]; 250 ppm ABA, 1 day after treatment (Table 13)",74 % of control
same,Transpiration rate (% of control),"[1]; 250 ppm ABA, 1 day after treatment (Table 14)",74 % of control
same,Transpiration rate (% of control),"[1]; 250 ppm ABA, 2 days after treatment (Table 2)",99 % of control
same,Transpiration rate (% of control),"[1]; 250 ppm ABA, 2 days after treatment (Table 5)",91 % of control
same,Transpiration rate (% of control),"[1]; 250 ppm ABA, 2 days after treatment (Table 6)",84 % of control
same,Transpiration rate (% of control),"[1]; 250 ppm ABA, 2 days after treatment (Table 11)",85 % of control
same,Transpiration rate (% of control),"[1]; 250 ppm ABA, 2 days after treatment (Table 14)",82 % of control
same,Transpiration rate (% of control),"[1]; 250 ppm ABA, 3 days after treatment (Table 2)",93 % of control
same,Transpiration rate (% of control),"[1]; 250 ppm ABA, 3 days after treatment (Table 5)",90 % of control
same,Transpiration rate (% of control),"[1]; 250 ppm ABA, 3 days after treatment (Table 6)",86 % of control
same,Transpiration rate (% of control),"[1]; 250 ppm ABA, 3 days after treatment (Table 11)",94 % of control
same,Transpiration rate (% of control),"[1]; 250 ppm ABA, 3 days after treatment (Table 13)",95 % of control
same,Transpiration rate (% of control),"[1]; 250 ppm ABA, 3 days after treatment (Table 14)",95 % of control
same,Transpiration rate (% of control),"[1]; 250 ppm ABA, 4 days after treatment (Table 5)",100 % of control
same,Transpiration rate (% of control),"[1]; 250 ppm ABA, 4 days after treatment (Table 6)",90 % of control
same,Transpiration rate (% of control),"[1]; 250 ppm ABA, 4 days after treatment (Table 13)",100 % of control
same,Transpiration rate (% of control),"[1]; 250 ppm ABA, 4 days after treatment (Table 14)",100 % of control
same,"Transpiration rate (% of control), Average","[1]; 250 ppm ABA, average of days 1-3 (Table 11)",87 % of control
same,Transpiration rate (% of control),"[1]; 250 ppm ABA, average of first 3 days after treatment (Table 1)",88 % of control
same,Transpiration rate (% of control),"[1]; 250 ppm ABA, average of first 3 days after treatment (Table 3)",83 % of control
same,Transpiration rate (% of control),"[1]; 250 ppm ABA, average of first 3 days after treatment (Table 4)",96.32 % of control
same,Transpiration rate (% of control),"[1]; 250 ppm ABA, average of first 3 days after treatment (Table 9)",73 % of control
same,Transpiration rate (% of control),"[1]; 500 ppm ABA, average of first 3 days after treatment",74 % of control
same,Transpiration rate (% of control),"[1]; 1000 ppm ABA, average of first 3 days after treatment",68 % of control
same,ABA concentrations to achieve 50% inhibition of transpiration,[1]; calculated from linear regression of relative transpiration (3-day average) on log10 ABA concentration,3328 ppm
same,% clusters with color,Crimson seedless grapes [2]; [12],1.8%
same,% clusters with color,Crimson seedless grapes [2]; [13],2.7%
same,% clusters with color,Crimson seedless grapes [2]; [14],5.7%
same,% clusters with color,Crimson seedless grapes [2]; [15],7.5%
same,% clusters with color,Crimson seedless grapes [2]; [16],9.4%
same,% clusters with color,Crimson seedless grapes [2]; [17],26.1%
same,% clusters with color,Crimson seedless grapes [2]; [18],26.2%
same,% clusters with color,Crimson seedless grapes [2]; [19],31.2%
same,Harvest yield (%),Crimson seedless grapes [2]; 100 ppm ABA foliar applied,25.5%
same,% clusters with color,Crimson seedless grapes [2]; [20],7.0%
same,% clusters with color,Crimson seedless grapes [2]; [21],10.7%
same,% clusters with color,Crimson seedless grapes [2]; [22],17.3%
same,% clusters with color,Crimson seedless grapes [2]; [23],20.5%
same,% clusters with color,Crimson seedless grapes [2]; [24],22.7%
same,% clusters with color,Crimson seedless grapes [2]; [25],47.9%
same,% clusters with color,Crimson seedless grapes [2]; [26],50.3%
same,% clusters with color,Crimson seedless grapes [2]; [27],56.4%
same,Harvest yield (%),Crimson seedless grapes [2]; 200 ppm ABA foliar applied,49.1%
same,% clusters with color,Crimson seedless grapes [3]; [12],1.8%
same,% clusters with color,Crimson seedless grapes [3]; [13],2.7%
same,% clusters with color,Crimson seedless grapes [3]; [14],5.7%
same,% clusters with color,Crimson seedless grapes [3]; [15],7.5%
same,% clusters with color,Crimson seedless grapes [3]; [16],9.4%
same,% clusters with color,Crimson seedless grapes [3]; [17],26.1%
same,% clusters with color,Crimson seedless grapes [3]; [18],26.2%
same,% clusters with color,Crimson seedless grapes [3]; [19],31.2%
same,Harvest yield (%),Crimson seedless grapes [3]; 100 ppm ABA foliar applied,25.5%
same,% clusters with color,Crimson seedless grapes [3]; [20],7.0%
same,% clusters with color,Crimson seedless grapes [3]; [21],10.7%
same,% clusters with color,Crimson seedless grapes [3]; [22],17.3%
same,% clusters with color,Crimson seedless grapes [3]; [23],20.5%
same,% clusters with color,Crimson seedless grapes [3]; [24],22.7%
same,% clusters with color,Crimson seedless grapes [3]; [25],47.9%
same,% clusters with color,Crimson seedless grapes [3]; [26],50.3%
same,% clusters with color,Crimson seedless grapes [3]; [27],56.4%
same,Harvest yield (%),Crimson seedless grapes [3]; 200 ppm ABA foliar applied,49.1%
"CC1=CC(=O)CC(C)(C)[C@@]1(O)/C=C/C(C)=C\C(=O)O [ABA ammonium salt, Ammonium Salt of (S)-(+)-Abscisic Acid]",Transpiration rate (% of control),[1]; [4],68 % of control
same,Transpiration rate (% of control),[1]; [5],73 % of control
same,Transpiration rate (% of control),[1]; [6],84 % of control
same,"Transpiration rate (% of control), Average",[1]; [7],75 % of control
same,Transpiration rate (% of control),[1]; [8],58 % of control
same,Transpiration rate (% of control),[1]; [9],67 % of control
same,Transpiration rate (% of control),[1]; [10],78 % of control
same,"Transpiration rate (% of control), Average",[1]; [11],68 % of control
